± gives the expanded uncertainty stated by the source.
Assays:
[1] = refractive index (other wavelength) (dimensionless); conditions: 100 kPa, Liquid, Wavelength=632.8 nm, Standard Abbe refractometry
[2] = refractive index (other wavelength) (dimensionless); xn = mol fraction of the nth substance listed; conditions: 296.36 K, 100 kPa, Liquid, Wavelength=632.8 nm, Standard Abbe refractometry

O=[N+]([O-])c1ccccc1 [nitrobenzene]
[1]
Conditions	refractive index
288.97 K	1.5501 ± 0.0004
289.62 K	1.5497 ± 0.0004
290.5 K	1.5493 ± 0.0004
291.45 K	1.5488 ± 0.0004
292.36 K	1.5484 ± 0.0004
293.38 K	1.5479 ± 0.0004
294.4 K	1.5474 ± 0.0004
295.5 K	1.5469 ± 0.0004
301.66 K	1.5439 ± 0.0004
302.72 K	1.5433 ± 0.0004
303.85 K	1.5428 ± 0.0004
304.98 K	1.5423 ± 0.0004
306.08 K	1.5418 ± 0.0004
307.2 K	1.5412 ± 0.0004
308.25 K	1.5407 ± 0.0004
309.34 K	1.5402 ± 0.0004

O=[N+]([O-])c1ccccc1 [nitrobenzene] + CCCCCCCCC
[2]
Conditions	refractive index
x1 = 0.153	1.4162 ± 0.0004
x1 = 0.2	1.4207 ± 0.0005
x1 = 0.275	1.4284 ± 0.0005
x1 = 0.379	1.4401 ± 0.0005
x1 = 0.541	1.4612 ± 0.0005
x1 = 0.594	1.4691 ± 0.0005
x1 = 0.688	1.4838 ± 0.0005
x1 = 0.799	1.5035 ± 0.0006
x1 = 0.896	1.5231 ± 0.0006
x1 = 1	1.5467 ± 0.0004

CCCCCCCCC [nonane]
[1]
Conditions	refractive index
290.88 K	1.4053 ± 0.0004
291.94 K	1.4048 ± 0.0004
292.73 K	1.4044 ± 0.0004
293.55 K	1.404 ± 0.0004
294.5 K	1.4036 ± 0.0004
295.51 K	1.4031 ± 0.0004
296.48 K	1.4026 ± 0.0004
297.42 K	1.4022 ± 0.0004

CCCCCCCCC [nonane] + O=[N+]([O-])c1ccccc1
Conditions	refractive index
[2], x2 = 0	1.4029 ± 0.0004

— the NIST ThermoML archive (doi:10.1021/je401097f)
